Here are results for 60 molecules from US9718790B2, “Triazine derivative and pharmaceutical composition having an analgesic activity comprising the same” (SHIONOGI & CO., LTD., priority 2010, dated 2017).

The target of this assay is human P2X3 receptor (Homo sapiens (Human), UniProt P56373). Kind of assay: Evaluation of human P2X3 receptor inhibitory activity (Fluo-3 calcium fluorescence, FDSS 3000, ATP stimulation).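 Further: stimulus was 50 nM ATP with fluorescence followed for 3 min, and the response per well was peak post-ATP fluorescence divided by the reading at measurement start.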 The assay is classed as cell-based. The following applies: C6BU-1 cells stably expressing human P2X3 receptor, Fluo-3 fluorescence, FDSS 3000.
Chain of human P2X3 receptor (P56373 whole entry): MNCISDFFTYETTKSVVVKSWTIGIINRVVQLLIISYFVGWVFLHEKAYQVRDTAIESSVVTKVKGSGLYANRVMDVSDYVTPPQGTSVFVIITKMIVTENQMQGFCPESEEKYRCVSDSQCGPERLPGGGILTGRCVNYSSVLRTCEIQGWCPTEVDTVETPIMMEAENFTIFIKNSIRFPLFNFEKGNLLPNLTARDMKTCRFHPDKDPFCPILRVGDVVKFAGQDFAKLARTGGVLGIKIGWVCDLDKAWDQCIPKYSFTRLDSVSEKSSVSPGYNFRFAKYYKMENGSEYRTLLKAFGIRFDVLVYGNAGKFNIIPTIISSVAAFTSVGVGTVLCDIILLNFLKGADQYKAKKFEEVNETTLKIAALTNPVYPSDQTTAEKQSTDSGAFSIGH

As a reminder, the IC50 is the concentration at which inhibition is half-maximal. In the case of `CCOC(=O)CCn1c(=O)[nH]/c(=N\c2ccc(OC[C@@H](C)CC)cc2)n(Cc2ccc(C)cc2)c1=O` [Compound I-1051], the 50% inhibitory concentration (IC50) stood at 100 nM. To `CCC[C@H](C)Oc1ccc(/N=c2\[nH]c(=O)n(CCC(=O)OCC)c(=O)n2Cc2ccc(C)cc2)cc1` [Compound I-1052] belongs 19 nM; to `CCC[C@@H](C)Oc1ccc(/N=c2\[nH]c(=O)n(CCC(=O)OCC)c(=O)n2Cc2ccc(C)cc2)cc1` [Compound I-1053], 79 nM; to `CCOC(=O)CCn1c(=O)[nH]/c(=N\c2ccc(OC(CC)CC)cc2)n(Cc2ccc(C)cc2)c1=O` [Compound I-1054], 18 nM.

As for `CCOC(=O)CCn1c(=O)[nH]/c(=N\c2ccc(OCCC(C)C)cc2)n(Cc2ccc(C)cc2)c1=O` [Compound I-1055], the concentration for half-maximal inhibition (IC50) turned out to be 91 nM. The figure for `CCOC(=O)CCn1c(=O)[nH]/c(=N\c2ccc(OCC(C)(C)C)cc2)n(Cc2ccc(C)cc2)c1=O` [Compound I-1056] is 177 nM. To `CCCCCOc1ccc(/N=c2\[nH]c(=O)n(C[C@H](C)C(=O)OC)c(=O)n2Cc2ccc(C)cc2)cc1` [Compound I-1057] belongs 89 nM. To `CCCCCOc1ccc(/N=c2\[nH]c(=O)n(CCC(=O)OCC)c(=O)n2Cc2ccc(C)cc2)cc1` [Compound I-1058] belongs 43 nM; to `CC[C@H](C)COc1ccc(/N=c2\[nH]c(=O)n(C[C@H](C)C(=O)O)c(=O)n2Cc2ccc(C)cc2)cc1` [Compound I-1059], 123 nM; to `CCC[C@H](C)Oc1ccc(/N=c2\[nH]c(=O)n(C[C@H](C)C(=O)O)c(=O)n2Cc2ccc(C)cc2)cc1` [Compound I-1060], 29 nM. For `CCC[C@@H](C)Oc1ccc(/N=c2\[nH]c(=O)n(C[C@H](C)C(=O)O)c(=O)n2Cc2ccc(C)cc2)cc1` [Compound I-1061], the 50% inhibitory concentration (IC50) came to 174 nM. The figure for `CCC(CC)Oc1ccc(/N=c2\[nH]c(=O)n(C[C@H](C)C(=O)O)c(=O)n2Cc2ccc(C)cc2)cc1` [Compound I-1062] is 37 nM; for `Cc1ccc(Cn2c(=O)n(C[C@H](C)C(=O)O)c(=O)[nH]/c2=N\c2ccc(OCCC(C)C)cc2)cc1` [Compound I-1063] it is 152 nM; for `Cc1ccc(Cn2c(=O)n(C[C@H](C)C(=O)O)c(=O)[nH]/c2=N\c2ccc(OCC(C)(C)C)cc2)cc1` [Compound I-1064] it is 257 nM. The figure for `CCCCCOc1ccc(/N=c2\[nH]c(=O)n(C[C@H](C)C(=O)O)c(=O)n2Cc2ccc(C)cc2)cc1` [Compound I-1065] is 85 nM; for `CC[C@H](C)COc1ccc(/N=c2\[nH]c(=O)n(CCC(=O)O)c(=O)n2Cc2ccc(C)cc2)cc1` [Compound I-1066] it is 425 nM; for `CCC[C@H](C)Oc1ccc(/N=c2\[nH]c(=O)n(CCC(=O)O)c(=O)n2Cc2ccc(C)cc2)cc1` [Compound I-1067] it is 93 nM. To `CCC(CC)Oc1ccc(/N=c2\[nH]c(=O)n(CCC(=O)O)c(=O)n2Cc2ccc(C)cc2)cc1` [Compound I-1069] belongs 111 nM; to `Cc1ccc(Cn2c(=O)n(CCC(=O)O)c(=O)[nH]/c2=N\c2ccc(OCCC(C)C)cc2)cc1` [Compound I-1070], 471 nM.

Consider `Cc1ccc(Cn2c(=O)n(CCC(=O)O)c(=O)[nH]/c2=N\c2ccc(OCC(C)(C)C)cc2)cc1` [Compound I-1071], for which the IC50 came out at 998 nM.

As for `CCCCCOc1ccc(/N=c2\[nH]c(=O)n(CCC(=O)O)c(=O)n2Cc2ccc(C)cc2)cc1` [Compound I-1072], the IC50 is 252 nM. The figure for `COC(=O)[C@@H](C)Cn1c(=O)[nH]/c(=N\c2ccc(OC3CCOCC3)cc2)n(Cc2ccc(C)cc2)c1=O` [Compound I-1073] is 92 nM. The figure for `Cc1ccc(Cn2c(=O)n(C[C@H](C)C(=O)O)c(=O)[nH]/c2=N\c2ccc(OC3CCOCC3)cc2)cc1` [Compound I-1074] is 86 nM. To `COC(=O)[C@@H](C)Cn1c(=O)[nH]/c(=N\c2ccc(Br)cc2)n(Cc2ccc(C)cc2)c1=O` [Compound I-1076] belongs 177 nM; to `COC(=O)[C@@H](C)Cn1c(=O)[nH]/c(=N\c2cccc(Br)c2)n(Cc2ccc(C)cc2)c1=O` [Compound I-1077], 64 nM; to `COC(=O)[C@@H](C)Cn1c(=O)[nH]/c(=N\c2ccc(C3=CCCCC3)cc2)n(Cc2ccc(C)cc2)c1=O` [Compound I-1078], 218 nM. On to `COC(=O)[C@@H](C)Cn1c(=O)[nH]/c(=N\c2ccc(OC(C)C)cc2)n(Cc2ccc(I)cc2)c1=O` [Compound I-1080], for which the IC50 was 66 nM. In the case of `COC(=O)[C@H](C)[C@H](C)n1c(=O)[nH]/c(=N\c2ccc(OC(C)C)cc2)n(Cc2ccc(C)cc2)c1=O` [Compound I-1081], the IC50 is 30 nM. For the molecule `Cc1ccc(Cn2c(=O)n([C@@H](C)[C@@H](C)C(=O)O)c(=O)[nH]/c2=N\c2ccc(OC(C)C)cc2)cc1` [Compound I-1082], the IC50 is 63 nM. The figure for `COC(=O)[C@@H](C)Cn1c(=O)[nH]/c(=N\c2ccc(C3=CCCC3)cc2)n(Cc2ccc(C)cc2)c1=O` [Compound I-1083] is 125 nM.

Consider `COC(=O)[C@@H](C)Cn1c(=O)[nH]/c(=N\c2cccc(C3=CCCC3)c2)n(Cc2ccc(C)cc2)c1=O` [Compound I-1084], for which the half-inhibitory concentration (IC50) worked out at 392 nM. The figure for `COC(=O)[C@@H](C)Cn1c(=O)[nH]/c(=N\c2ccc(N3CCCCC3)cc2)n(Cc2ccc(C)cc2)c1=O` [Compound I-1085] is 34 nM. The figure for `COC(=O)[C@@H](C)Cn1c(=O)[nH]/c(=N\c2ccc(N3CCCC3)cc2)n(Cc2ccc(C)cc2)c1=O` [Compound I-1086] is 291 nM. Take `COC(=O)[C@@H](C)Cn1c(=O)[nH]/c(=N\c2ccc(C3CCCCC3)cc2)n(Cc2ccc(C)cc2)c1=O` [Compound I-1087]: the IC50 was found to be 71 nM. As to `COC(=O)[C@@H](C)Cn1c(=O)[nH]/c(=N\c2cccc(C3CCCCC3)c2)n(Cc2ccc(C)cc2)c1=O` [Compound I-1088], the IC50 came out at 548 nM.

On to `COC(=O)[C@@H](C)Cn1c(=O)[nH]/c(=N\c2cccc(C3CCCC3)c2)n(Cc2ccc(C)cc2)c1=O` [Compound I-1089], for which the IC50 turned out to be 487 nM. To `COC(=O)[C@@H](C)Cn1c(=O)[nH]/c(=N\c2ccc(C3CCCC3)cc2)n(Cc2ccc(C)cc2)c1=O` [Compound I-1090] belongs 135 nM; to `Cc1ccc(Cn2c(=O)n(C[C@H](C)C(=O)O)c(=O)[nH]/c2=N\c2ccc(N3CCCC3)cc2)cc1` [Compound I-1091], 179 nM. The figure for `CC(C)Oc1ccc(/N=c2\[nH]c(=O)n(C[C@H](C)C(=O)O)c(=O)n2Cc2ccc(I)cc2)cc1` [Compound I-1092] is 69 nM; for `Cc1ccc(Cn2c(=O)n(C[C@H](C)C(=O)O)c(=O)[nH]/c2=N\c2ccc(N3CCCCC3)cc2)cc1` [Compound I-1093] it is 38 nM. On to `COC(=O)[C@@H](C)Cn1c(=O)[nH]/c(=N\c2ccc(C=C3CCCC3)cc2)n(Cc2ccc(C)cc2)c1=O` [Compound I-1094], for which the IC50 was 103 nM.

As to `COC(=O)[C@@H](C)Cn1c(=O)[nH]/c(=N\c2ccc(CC3CCCC3)cc2)n(Cc2ccc(C)cc2)c1=O` [Compound I-1096], the IC50 turned out to be 94 nM.

In the case of `COC(=O)[C@@H](C)Cn1c(=O)[nH]/c(=N\c2ccc(CC3CCCC3)cc2)n(Cc2ccc(Cl)cc2)c1=O` [Compound I-1097], the 50% inhibitory concentration (IC50) stood at 141 nM. The figure for `Cc1ccc(Cn2c(=O)n(C[C@H](C)C(=O)O)c(=O)[nH]/c2=N\c2ccc(C=C3CCCC3)cc2)cc1` [Compound I-1098] is 74 nM; for `C[C@@H](Cn1c(=O)[nH]/c(=N\c2ccc(C=C3CCCC3)cc2)n(Cc2ccc(Cl)cc2)c1=O)C(=O)O` [Compound I-1099] it is 70 nM; for `Cc1ccc(Cn2c(=O)n(C[C@H](C)C(=O)O)c(=O)[nH]/c2=N\c2ccc(CC3CCCC3)cc2)cc1` [Compound I-1100] it is 43 nM.

Regarding `C[C@@H](Cn1c(=O)[nH]/c(=N\c2ccc(CC3CCCC3)cc2)n(Cc2ccc(Cl)cc2)c1=O)C(=O)O` [Compound I-1101], the IC50 is 53 nM. To `COC(=O)[C@@H](C)Cn1c(=O)[nH]/c(=N\c2ccc3c(c2)CCCO3)n(Cc2ccc(Cl)cc2)c1=O` [Compound I-1102] belongs 148 nM; to `C[C@@H](Cn1c(=O)[nH]/c(=N\c2ccc3c(c2)CCCO3)n(Cc2ccc(Cl)cc2)c1=O)C(=O)O` [Compound I-1103], 423 nM; to `COC(=O)[C@H](C)Cn1c(=O)[nH]/c(=N\c2ccc(OC(C)C)cc2)n(Cc2ccc(C)cc2)c1=O` [Compound I-1104], 11 nM.

For the molecule `Cc1ccc(Cn2c(=O)n(C[C@@H](C)C(=O)O)c(=O)[nH]/c2=N\c2ccc(OC(C)C)cc2)cc1` [Compound I-1105], the IC50 came to 152 nM. To `CCOc1ccc(/N=c2\[nH]c(=O)n(C[C@@H](C)C(=O)OC)c(=O)n2Cc2ccc(C)cc2)cc1Cl` [Compound I-1106] belongs 7 nM.

Consider `CCOc1ccc(/N=c2\[nH]c(=O)n(C[C@@H](C)C(=O)O)c(=O)n2Cc2ccc(C)cc2)cc1Cl` [Compound I-1107], for which the concentration for half-maximal inhibition (IC50) came out at 43 nM. The figure for `Cc1ccc(Cn2c(=O)n(C[C@H](C)C(=O)O)c(=O)[nH]/c2=N\c2ccc(C3CCCCC3)cc2)cc1` [Compound I-1108] is 50 nM; for `Cc1ccc(Cn2c(=O)n(C[C@H](C)C(=O)O)c(=O)[nH]/c2=N\c2cccc(C3CCCCC3)c2)cc1` [Compound I-1109] it is 430 nM; for `Cc1ccc(Cn2c(=O)n(C[C@H](C)C(=O)O)c(=O)[nH]/c2=N\c2cccc(C3CCCC3)c2)cc1` [Compound I-1110] it is 397 nM. The figure for `Cc1ccc(Cn2c(=O)n(C[C@H](C)C(=O)O)c(=O)[nH]/c2=N\c2ccc(C3=CCCCC3)cc2)cc1` [Compound I-1111] is 161 nM. To `Cc1ccc(Cn2c(=O)n(C[C@H](C)C(=O)O)c(=O)[nH]/c2=N\c2cccc(C3=CCCCC3)c2)cc1` [Compound I-1112] belongs 872 nM; to `Cc1ccc(Cn2c(=O)n(C[C@H](C)C(=O)O)c(=O)[nH]/c2=N\c2ccc(C3CCCC3)cc2)cc1` [Compound I-1113], 123 nM. `Cc1ccc(Cn2c(=O)n(C[C@H](C)C(=O)O)c(=O)[nH]/c2=N\c2ccc(C3=CCCC3)cc2)cc1` [Compound I-1114]: the IC50 was found to be 214 nM.
